Data as given in patent US9321718B2 (CHROMA THERAPEUTICS LTD., priority 2010, dated 2016).
Read-outs that look alike come from different tables or passages of the source.

Key:
U937 (hCE-1 +ve) cells = experiment: Proliferation assay, U937 cells; type: cell-based, human; conditions: for IC50: Homo sapiens, U-937, U937, 72 hours, WST-1, read-out: Proliferation assay: Inhibition of U937 (hCE-1 +ve) cell proliferation IC50
Protocol: (§1) Cells are seeded in 96 well tissue culture plates (1 well=30 mm^2) at an appropriate density (2000 cells per well for U937 cells, 2250 cells per well for HUT-78 and MINO cells) in 50 μl of culture medium (see below for details). 24 Hours later 50 μl of the compound prepared in the same medium is added as 3 fold dilutions to give final concentrations in the range 5-10,000 nM (n=6 for each concentration). The plates are then incubated at 37° C., 5% CO2 for 72 hours. Cell proliferation is assessed using WST-1 (a metabolic indicator dye, Roche Cat no. 11644807001) according to the manufacturer's instructions. The results are calculated as a percentage of vehicle response and plotted as a dose-response curve. IC50 values represent the concentration of compound that inhibits the vehicle response by 50%.
(§2) Culture medium for U937 and RUT-78 cells is RPMI1640 (Sigma R0883) with 10% heat inactivated fetal calf serum (Hyclone SH30071, Perbio), plus 2 mM glutamine (Sigma G7513) and 50 U/ml penicillin and streptomycin sulphate (Sigma P0781). MINO cell culture medium is as for U937 and HUT-78 but supplemented with sodium pyruvate (Sigma S8636) to a final concentration of 1 mM.

[1] = molecular target: T1, human recombinant his-tagged HSP90α (Homo sapiens, UniProt P07900); experiment: HSP90 enzyme assay (HTRF, competition with biotinylated Geldanamycin); type: binding
T1 construct: purchased Prospec Technogene #HSP90
Outline: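 HTRF competition: compounds (5000 to 0.3 nM, 0.5% DMSO) displace 40 nM biotinylated geldanamycin from 40 nM his-tagged HSP90α. Binding was read via Eu-cryptate anti-his/streptavidin-XL FRET after 20 h at room temperature in Hepes pH 7.3 buffer. IC50 was fitted against controls.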

[2] = system: TNFα release from LPS stimulated THP-1 (hCE-1 +ve) cells; experiment: LPS-stimulation of THP-1 cells (TNF-α release); type: cell-based, human; conditions: for IC50: Homo sapiens, THP-1
Outline: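 THP-1 cells at 4×10^4 per well were pre-incubated for 16 h, then exposed to inhibitor for 2 h before stimulation with 1 μg/ml LPS for 6 h at 37 °C. TNF-α in cell-free supernatants was measured by sandwich ELISA.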

Hut78 (hCE-1 -ve) cells = experiment: Proliferation assay, Hut78 cells; type: cell-based, human; conditions: for IC50: Homo sapiens, Hut78, 72 hours, WST-1, read-out: Proliferation assay: Inhibition of Hut78 (hCE-1 -ve) cell proliferation IC50
Protocol: as §1, §2

[3] = system: TNF-α levels in LPS-stimulated human whole blood; experiment: LPS-stimulation of human whole blood (TNF-α levels); type: cell-based; conditions: Homo sapiens; IC50 range; TNF-α after LPS 100 ng/ml, 6 hours
Protocol: Whole blood is taken by venous puncture using heparinised vacutainers (Becton Dickinson) and diluted in an equal volume of RPMI1640 tissue culture media (Sigma). 100 μl is then plated in V-bottomed 96 well tissue culture treated plates. 2 Hours after the addition of the inhibitor in 100 μl of RPMI1640 media, the blood is stimulated with LPS (E. Coli strain 005:B5, Sigma) at a final concentration of 100 ng/ml and incubated at 37° C. in 5% CO2 for 6 hours. TNF-α levels are measured from cell-free supernatants by sandwich ELISA (R&D Systems #QTA00B).

intact THP-1 cells = experiment: Carboxylic acid accumulation in intact THP-1 cells; type: in vitro ADME, human; conditions: in words
Protocol: (§3) The assessment of the accumulation of ester-derived acid in intact human tumour cells can be measured using the following method:
(§4) U937, THP-1 or Hut 78 cells (4×10^4/ml) were incubated at 37° C. in culture medium containing 6 μM compound. Incubations were terminated by centrifugation (300 g; 5 min; 4° C.). Supernatants were added to 4 volumes of HPLC-grade acetonitrile. After decanting the supernatant, the residual cell pellet (1×10^6 cells) was extracted into 1 ml of acetonitrile. Samples were analyzed for the ester and acid metabolite at room temperature by LC/MS/MS (Sciex API3000). Chromatography was based on an AceCN (75*21 mm) column with a 5-95% (v/v) acetonitrile, 0.1% (v/v) formic acid mobile phase.

intact U937 cells = experiment: Carboxylic acid accumulation in intact U937 cells; type: in vitro ADME, human; conditions: in words
Protocol: as §3, §4

intact Hut78 cells = experiment: Carboxylic acid accumulation in intact Hut78 cells; type: in vitro ADME, human; conditions: in words
Protocol: as §3, §4

[4] = compound as drawn (ester for the ester compound), read-out: Enzyme assay: Inhibition of Hsp90 (IC50 nM)
[5] = read-out: THP-1 assay: Inhibition of TNFα release from LPS stimulated THP-1 (hCE-1 +ve) cells (IC50 nM)
[6] = IC50 range, read-out: Enzyme Assay
[7] = IC50 range, TNF-α after LPS 1 μg/ml, 6 hours, read-out: THP-1 Assay

IC50 (U937 (hCE-1 +ve) cells) | IC50 [1, 4] | IC50 [2, 5] | Ratio of IC50's of Hut78 to U937 cells (Hut78 (hCE-1 -ve) cells) | IC50 [1, 6] | IC50 ([1]; acid (carboxylic acid of the ester drawn), read-out: Enzyme assay: Inhibition of Hsp90 (IC50 nM)) | IC50 in the Hsp90 binding assay compared with CHR-7310 ([1]; in words, relative to non-ester parent CHR-7310) | IC50 [3] | IC50 [2, 7] | Carboxylic acid accumulated by THP-1 cells (intact THP-1 cells) | Carboxylic acid accumulated by U937 cells (intact U937 cells) | Acid detected in Hut78 cells (intact Hut78 cells) | SMILES | IC50 (Hut78 (hCE-1 -ve) cells) | Potency in U937 cells compared with CHR-7310 (U937 (hCE-1 +ve) cells; in words, relative to CHR-7310) | Potency in THP-1 cells compared with CHR-7310 ([2]; in words, relative to CHR-7310) | Potency in Hut78 cells (Hut78 (hCE-1 -ve) cells; in words, Hut78 cells do not contain hCE-1)
200 nM | 8 nM | 476 nM | ~1 | – | – | – | – | – | – | – | – | CC1CCN(C(=O)c2cc(C(C)C)c(O)cc2O)CC1 [CHR-7310, reference compound] | 145 nM | – | – | –
27 nM | 42 nM | 45 nM | 28 | < 100 nM | 7 nM | weaker | 100 to 1000 nM | < 100 nM | – | – | – | CC(C)c1cc(C(=O)N2CCC(N[C@@H](COC(C)(C)C)C(=O)OC3CCCC3)CC2)c(O)cc1O [Example 17, cyclopentyl O-tert-butyl-N-(1-{[2,4-dihydroxy-5-(propan-2-yl)phenyl]carbonyl}piperidin-4-yl)-L-serinate] | 760 nM | significantly more potent | significantly more potent | significantly weaker
– | – | – | – | < 100 nM | – | – | 100 to 1000 nM | < 100 nM | significant amounts | significant amounts | negligible | CC(C)C[C@H](NC1CCN(C(=O)c2cc(C(C)C)c(O)cc2O)CC1)C(=O)OC1CCCC1 [Example 1, cyclopentyl N-(1-{[2,4-dihydroxy-5-(propan-2-yl)phenyl]carbonyl}piperidin-4-yl)-L-leucinate] | – | – | – | –
